According to patent US9884063B2, “Amido-substituted azole compounds” (Bayer Pharma Aktiengesellschaft, priority 2014, dated 2018):

Tests used:
[1] = test system: HEK293 FOP control reporter cell line; assay: HEK293 FOP Assay (FOP control vector luciferase reporter); type: cell-based; settings: Homo sapiens
How it was run: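 Stable HEK293 line carrying the FOP vector (randomized, non-functional TCF sites; Geneticin-selected) was run in parallel with the TOP line. Cells were plated 24 h ahead at 10000/well and given recombinant human Wnt-3a at 2500–5 ng/ml. Compounds were tested at 50 μM–15 nM (3.16-fold steps) in CAFTY buffer, pH 7.4, with 2 mM Ca2+ and 0.01% BSA.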

TNKS2 = molecular target: T1, TNKS2 (Homo sapiens, UniProt Q9H2K2); assay: TNKS2 Assay 1 (TNKS2 Histone Ribosylation Assay Kit, biotin-labeled NAD+); type: biochemical; settings: chemiluminescent readout, 384 well
T1 sequence (Q9H2K2 1-1166): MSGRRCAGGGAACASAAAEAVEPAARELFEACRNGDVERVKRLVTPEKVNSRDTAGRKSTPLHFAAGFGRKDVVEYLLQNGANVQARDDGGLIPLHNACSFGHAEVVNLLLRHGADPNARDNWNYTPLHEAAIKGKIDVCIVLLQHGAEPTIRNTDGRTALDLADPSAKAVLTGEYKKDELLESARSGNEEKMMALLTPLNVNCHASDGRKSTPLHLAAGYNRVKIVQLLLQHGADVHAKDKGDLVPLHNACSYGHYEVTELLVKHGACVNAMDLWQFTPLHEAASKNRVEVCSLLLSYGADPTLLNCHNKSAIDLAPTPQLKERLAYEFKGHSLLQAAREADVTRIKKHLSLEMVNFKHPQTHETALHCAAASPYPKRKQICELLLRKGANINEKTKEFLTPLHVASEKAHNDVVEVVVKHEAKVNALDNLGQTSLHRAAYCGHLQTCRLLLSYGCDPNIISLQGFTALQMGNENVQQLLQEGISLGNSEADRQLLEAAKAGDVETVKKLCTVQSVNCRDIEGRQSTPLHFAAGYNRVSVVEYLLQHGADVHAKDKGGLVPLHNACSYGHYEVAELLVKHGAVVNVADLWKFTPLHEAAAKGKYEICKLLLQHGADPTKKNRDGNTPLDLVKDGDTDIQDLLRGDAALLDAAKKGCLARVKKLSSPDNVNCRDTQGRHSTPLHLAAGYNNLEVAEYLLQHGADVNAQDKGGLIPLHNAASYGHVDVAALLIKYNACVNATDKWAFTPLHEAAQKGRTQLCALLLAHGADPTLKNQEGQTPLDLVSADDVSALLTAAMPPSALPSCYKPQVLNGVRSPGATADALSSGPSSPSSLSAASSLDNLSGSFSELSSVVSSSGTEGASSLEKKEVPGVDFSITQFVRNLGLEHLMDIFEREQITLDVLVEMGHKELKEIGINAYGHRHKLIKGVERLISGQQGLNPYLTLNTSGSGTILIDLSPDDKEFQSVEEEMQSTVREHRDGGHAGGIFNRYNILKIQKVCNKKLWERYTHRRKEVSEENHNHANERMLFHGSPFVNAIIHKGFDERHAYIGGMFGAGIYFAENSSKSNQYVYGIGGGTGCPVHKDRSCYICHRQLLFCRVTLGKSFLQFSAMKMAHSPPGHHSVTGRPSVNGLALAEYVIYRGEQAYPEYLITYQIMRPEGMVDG
Procedure: The potency of the compounds according to the invention was assessed applying an in vitro inhibition assay. The TNKS2 catalyzed NAD^+-dependent ribosylation of a suitable protein substrate was detected using a commercially available biotin/streptavidin binding based assay format [TNKS2 Histone Ribosylation Assay Kit (Biotin-labeled NAD+), Catalog #80572; BPS Bioscience, San Diego, USA]. Here, the incorporation of a biotin-labeled NAD+ during the TNKS2 catalyzed ribosylation reaction was detected with a streptavidin-HRP coupled chemi-luminescent readout. The intensity of the readout signal is proportional to the incorporated NAD^+. Inhibition of TNKS2 leads to a decreased incorporation of NAD^+ and consequently to a lower readout signal intensity. The concentration of a test compound which inhibits the enzyme activity by 50% (corresponds to half of the normed readout signal intensity) is reported as IC50.
The assay was conducted in a 384 well MTP format according to the manufacturer's protocol [bpsbioscience.com/poly-adp-ribose-polymerase/assay-kit/tnks2-histone-ribosylation-assay-kit-biotin-labeled-nad-80572 referencing: Brown, J. A., Marala, R. B. J. Pharmacol. Toxicol. Methods 2002 47:137-41]. and using a BMG Pherastar MTP reader [BMG-Labtech, Offenburg, Germany].

[2] = HEK293 FOP control reporter cell line, 16 hours incubation, compound dilution series 50 μM to 15 nM
[3] = HEK293 FOP control reporter cells, 16 hours, luciferase, dilution series from 50 μM

Structure (SMILES)	IC50 [1, 2] [µM]	IC50 [1, 3] [µM]	IC50 (TNKS2; Table 2) [µM]	IC50 (TNKS2; first table) [µM]
O=C(Nc1ccc(NC(=O)c2ocnc2C(=O)NCCN2CCC(F)(F)CC2)cc1)c1ccc(F)cc1Cl [Example 218, N^5-{4-[(2-chloro-4-fluorobenzoyl)amino]phenyl}-N^4-[2-(4,4-difluoropiperidin-1-yl)ethyl]-1,3-oxazole-4,5-dicarboxamide]	31.5	–	–	–
CNC(=O)c1nc[nH]c1C(=O)Nc1ccc(NC(=O)c2ccc(F)cc2)cc1 [Example 20, N^5-{4-[(4-fluorobenzoyl)amino]phenyl}-N^4-methyl-1H-imidazole-4,5-dicarboxamide]	40.5	31	1.7	1.7
CN1CCN(C(C)(C)CNC(=O)c2[nH]cnc2C(=O)Nc2ccc(NC(=O)c3ccc(F)cc3Cl)cc2)CC1 [Example 187, N^4-{4-[(2-chloro-4-fluorobenzoyl)amino]phenyl}-N^5-[2-methyl-2-(4-methylpiperazin-1-yl)propyl]-1H-imidazole-4,5-dicarboxamide]	28	–	–	–
CNC(=O)c1nc[nH]c1C(=O)Nc1ccc(NC(=O)c2ccc(Cl)cc2Cl)cc1 [Example 9, N^5-{4-[(2,4-dichlorobenzoyl)amino]phenyl}-N^4-methyl-1H-imidazole-4,5-dicarboxamide]	31.5	40	0.03	0.02
CCNC(=O)c1nc[nH]c1C(=O)Nc1ccc(NC(=O)c2ccc(OCC)cc2Cl)cc1 [Example 259, N^5-{4-[(2-chloro-4-ethoxybenzoyl)amino]phenyl}-N^4-ethyl-1H-imidazole-4,5-dicarboxamide]	33	–	–	–
CNC(=O)c1nc[nH]c1C(=O)Nc1ccc(NC(=O)c2ccc(OCCN3CCN(C)CC3)cc2Cl)cc1 [Example 28, N^5-[4-({2-chloro-4-[2-(4-methylpiperazin-1-yl)ethoxy]benzoyl}amino)phenyl]-N^4-methyl-1H-imidazole-4,5-dicarboxamide]	36	42	0.06	0.06
CN(C)C(=O)c1nc[nH]c1C(=O)Nc1ccc(NC(=O)c2ccc(F)cc2Cl)cc1 [Example 24, N^5-{4-[(2-chloro-4-fluorobenzoyl)amino]phenyl}-N^4,N^4-dimethyl-1H-imidazole-4,5-dicarboxamide]	–	≥ 50	0.5	0.5
CC(C)(CNC(=O)c1[nH]cnc1C(=O)Nc1ccc(NC(=O)c2ccccc2Cl)cc1)N1CCCCC1 [Example 165, N^4-{4-[(2-chlorobenzoyl)amino]phenyl}-N^5-[2-methyl-2-(piperidin-1-yl)propyl]-1H-imidazole-4,5-dicarboxamide]	31	–	–	–
O=C(Nc1ccc(NC(=O)c2nc[nH]c2C(=O)NCCCCN2CCCCC2)cc1)c1ccccc1Cl [Example 189, N^4-{4-[(2-chlorobenzoyl)amino]phenyl}-N^5-[4-(piperidin-1-yl)butyl]-1H-imidazole-4,5-dicarboxamide]	28	–	–	–
CC(C)CNC(=O)c1[nH]cnc1C(=O)Nc1ccc(NC(=O)c2ccc(F)cc2Cl)cc1 [Example 147, N^4-{4-[(2-chloro-4-fluorobenzoyl)amino]phenyl}-N^5-isobutyl-1H-imidazole-4,5-dicarboxamide]	6	–	–	–
CC1CCCN(CCNC(=O)c2[nH]cnc2C(=O)Nc2ccc(NC(=O)c3ccc(F)cc3Cl)cc2)C1 (stereo not drawn) [Example 208, N^4-{4-[(2-chloro-4-fluorobenzoyl)amino]phenyl}-N^5-[2-(3-methylpiperidin-1-yl)ethyl]-1H-imidazole-4,5-dicarboxamide]	23	–	–	–
CNC(=O)c1nc[nH]c1C(=O)Nc1ccc(NC(=O)c2cc(OCCN3CCCCC3)ccc2Cl)cc1 [Example 125, N^5-[4-({2-chloro-5-[2-(piperidin-1-yl)ethoxy]benzoyl}amino)phenyl]-N^4-methyl-1H-imidazole-4,5-dicarboxamide]	15	–	–	–
CC(C)(CN1CCOCC1)NC(=O)c1[nH]cnc1C(=O)Nc1ccc(NC(=O)c2ccc(F)cc2)cc1 [Example 180, N^4-{4-[(4-fluorobenzoyl)amino]phenyl}-N^5-[2-methyl-1-(morpholin-4-yl)propan-2-yl]-1H-imidazole-4,5-dicarboxamide]	37	–	–	–
CNC(=O)c1nc[nH]c1C(=O)Nc1ccc(NC(=O)c2ncccc2Cl)cc1 [Example 247, N^5-(4-{[(3-chloropyridin-2-yl)carbonyl]amino}phenyl)-N^4-methyl-1H-imidazole-4,5-dicarboxamide]	35	–	–	–
O=C(Nc1ccc(NC(=O)c2nc[nH]c2C(=O)NCCCN2CCOCC2)cc1)c1ccccc1Cl [Example 200, N^4-{4-[(2-chlorobenzoyl)amino]phenyl}-N^5-[3-(morpholin-4-yl)propyl]-1H-imidazole-4,5-dicarboxamide]	20	–	–	–
CC(C)(CNC(=O)c1[nH]cnc1C(=O)Nc1ccc(NC(=O)c2ccc(F)cc2)cc1)N1CCCCC1 [Example 209, N^4-{4-[(4-fluorobenzoyl)amino]phenyl}-N^5-[2-methyl-2-(piperidin-1-yl)propyl]-1H-imidazole-4,5-dicarboxamide]	22	–	–	–
O=C(Nc1ccc(NC(=O)c2nc[nH]c2C(=O)NC2CCOC2)cc1)c1ccc(F)cc1Cl (stereo not drawn) [Example 236, N^4-{4-[(2-chloro-4-fluorobenzoyl)amino]phenyl}-N^5-(tetrahydrofuran-3-yl)-1H-imidazole-4,5-dicarboxamide]	34	–	–	–
CC1CCN(CCNC(=O)c2nc[nH]c2C(=O)Nc2ccc(NC(=O)c3ccc(F)cc3Cl)cc2)CC1 [Example 126, N^5-{4-[(2-chloro-4-fluorobenzoyl)amino]phenyl}-N^4-[2-(4-methylpiperidin-1-yl)ethyl]-1H-imidazole-4,5-dicarboxamide]	27	–	–	–
O=C(NCCN1CCCCC1)c1nc[nH]c1C(=O)Nc1ccc(NC(=O)c2c(F)cc(F)cc2Cl)cc1 [Example 119, N^5-{4-[(2-chloro-4,6-difluorobenzoyl)amino]phenyl}-N^4-[2-(piperidin-1-yl)ethyl]-1H-imidazole-4,5-dicarboxamide]	20	–	–	–
O=C(Nc1ccc(NC(=O)c2nc[nH]c2C(=O)NCCN2CCCCC2)cc1)c1ccc(F)cc1Br [Example 216, N^4-{4-[(2-bromo-4-fluorobenzoyl)amino]phenyl}-N^5-[2-(piperidin-1-yl)ethyl]-1H-imidazole-4,5-dicarboxamide]	11	–	–	–
CC(C)(CN1CCCCC1)NC(=O)c1[nH]cnc1C(=O)Nc1ccc(NC(=O)c2ccccc2Cl)cc1 [Example 171, N^4-{4-[(2-chlorobenzoyl)amino]phenyl}-N^5-[2-methyl-1-(piperidin-1-yl)propan-2-yl]-1H-imidazole-4,5-dicarboxamide]	6.5	–	–	–
CC(C)(C)CNC(=O)c1[nH]cnc1C(=O)Nc1ccc(NC(=O)c2ccccc2Cl)cc1 [Example 148, N^4-{4-[(2-chlorobenzoyl)amino]phenyl}-N^5-(2,2-dimethylpropyl)-1H-imidazole-4,5-dicarboxamide]	16	–	–	–
